# Measurements taken from patent US9346793B2, “Hydroxylated aminotriazole derivatives as ALX receptor agonists” (Actelion Pharmaceuticals, LTD., priority 2010, dated 2016).
# Target: recombinant human ALX receptor (HEK293-hALXR-Gα16 cells) (Homo sapiens (Human), UniProt P25090)
# Assay: Intracellular calcium measurements (FLIPR), ALX receptor agonistic activity
# Format: cell-based
# Details: normalized to 10 nM WKYMVm, read-out: EC50 (agonistic activity with respect to the ALX receptor)
# Protocol: The ALX receptor agonistic activity of the compounds of formula (I) is determined in accordance with the following experimental method.
# Intracellular Calcium Measurements:
# Cells expressing recombinant human ALX receptor and the G-protein Gα16 (HEK293-hALXR-Gα16) were grown to 80% confluency in Growing Medium (GM). Cells were detached from culture dishes with a cell dissociation buffer (Invitrogen, 13151-014), and collected by centrifugation at 1,000 rpm at rt for 5 min in Assay Buffer (AB) (equal parts of Hank's BSS (Gibco, 14065-049) and DMEM without Phenol Red (Gibco, 11880-028)). After 60 min incubation at 37° C. under 5% CO2 in AB supplemented with 1 μM Fluo-4 (AM) (Invitrogen, F14202) and 20 mM HEPES (Gibco, 15630-056), the cells were washed and resuspended in AB. They were then seeded onto 384-well FLIPR assay plates (Greiner, 781091) at 50,000 cells in 70 μl per well and sedimented by centrifugation at 1,000 rpm for 1 min. Stock solutions of test compounds were made up at a concentration of 10 mM in DMSO, and serially diluted in AB to concentrations required for activation dose response curves. WKYMVm (Phoenix Peptides) was used as a reference agonist. A FLIPR Tetra instrument (Molecular Devices) was operated according to the manufacturers standard instructions, adding 4 μl of test compound dissolved at 10 mM in DMSO and diluted prior to the experiment in assay buffer to obtain the desired final concentration. Changes in fluorescence were monitored before and after the addition of test compounds at lex=488 nm and lem=540 nm. Emission peak values above base level after compounds addition were exported after base line subtraction. Values were normalized to high-level control (WKYMVm compound, 10 nM final concentration) after subtraction of the base line value (AB addition).
# Chain of recombinant human ALX receptor (HEK293-hALXR-Gα16 cells) (P25090 whole entry): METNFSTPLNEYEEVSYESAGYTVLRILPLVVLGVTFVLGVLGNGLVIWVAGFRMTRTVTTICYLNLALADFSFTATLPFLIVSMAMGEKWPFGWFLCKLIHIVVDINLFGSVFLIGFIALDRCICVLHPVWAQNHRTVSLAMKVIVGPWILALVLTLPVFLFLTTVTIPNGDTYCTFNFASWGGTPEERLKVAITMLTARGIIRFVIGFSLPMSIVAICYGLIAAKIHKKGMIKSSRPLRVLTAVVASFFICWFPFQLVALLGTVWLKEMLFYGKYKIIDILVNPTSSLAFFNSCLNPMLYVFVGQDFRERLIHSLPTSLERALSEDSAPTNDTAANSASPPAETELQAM
row,SMILES,EC50
1,"Cc1cccc(-c2oc(C)nc2C(=O)Nc2cnn(Cc3nc(C(C)(C)O)co3)n2)c1 [Example 1, 2-Methyl-5-m-tolyl-oxazole-4-carboxylic acid {2-[4-(1-hydroxy-1-methyl-ethyl)-oxazol-2-ylmethyl]-2H-[1,2,3]triazol-4-yl}-amide]",0.0118 µM
2,"Cc1cccc(-c2oc(C)nc2C(=O)Nc2cnn(Cc3nc(C4(O)CC4)co3)n2)c1 [Example 2, 2-Methyl-5-m-tolyl-oxazole-4-carboxylic acid {2-[4-(1-hydroxy-cyclopropyl)-oxazol-2-ylmethyl]-2H-[1,2,3]triazol-4-yl}-amide]",0.0076 µM
3,"CC(C)(O)c1coc(Cn2ncc(NC(=O)c3ncoc3-c3ccccc3)n2)n1 [Example 3, 5-Phenyl-oxazole-4-carboxylic acid {2-[4-(1-hydroxy-1-methyl-ethyl)-oxazol-2-ylmethyl]-2H-[1,2,3]triazol-4-yl}-amide]",0.008 µM
4,"CC(C)(O)c1coc(Cn2ncc(NC(=O)c3ncoc3-c3ccc(F)cc3)n2)n1 [Example 4, 5-(4-Fluoro-phenyl)-oxazole-4-carboxylic acid {2-[4-(1-hydroxy-1-methyl-ethyl)-oxazol-2-ylmethyl]-2H-[1,2,3]triazol-4-yl}-amide]",0.051 µM
5,"Cc1nc(C(=O)Nc2cnn(Cc3nc(C(C)(C)O)co3)n2)c(-c2cccc(C(F)(F)F)c2)o1 [Example 5, 2-Methyl-5-(3-trifluoromethyl-phenyl)-oxazole-4-carboxylic acid {2-[4-(1-hydroxy-1-methyl-ethyl)-oxazol-2-ylmethyl]-2H-[1,2,3]triazol-4-yl}-amide]",0.0217 µM
6,"COc1cccc(-c2oc(C)nc2C(=O)Nc2cnn(Cc3nc(C(C)(C)O)co3)n2)c1 [Example 6, 5-(3-Methoxy-phenyl)-2-methyl-oxazole-4-carboxylic acid {2-[4-(1-hydroxy-1-methyl-ethyl)-oxazol-2-ylmethyl]-2H-[1,2,3]triazol-4-yl}-amide]",0.0127 µM
7,"Cc1nc(C(=O)Nc2cnn(Cc3nc(C(C)(C)O)co3)n2)c(-c2cccc(Cl)c2)o1 [Example 7, 5-(3-Chloro-phenyl)-2-methyl-oxazole-4-carboxylic acid {2-[4-(1-hydroxy-1-methyl-ethyl)-oxazol-2-ylmethyl]-2H-[1,2,3]triazol-4-yl}-amide]",0.0101 µM
8,"CC(C)(O)c1coc(Cn2ncc(NC(=O)c3ncoc3-c3cccc(Cl)c3)n2)n1 [Example 8, 5-(3-Chloro-phenyl)-oxazole-4-carboxylic acid {2-[4-(1-hydroxy-1-methyl-ethyl)-oxazol-2-ylmethyl]-2H-[1,2,3]triazol-4-yl}-amide]",0.0178 µM
9,"COc1cccc(-c2ocnc2C(=O)Nc2cnn(Cc3nc(C(C)(C)O)co3)n2)c1 [Example 9, 5-(3-Methoxy-phenyl)-oxazole-4-carboxylic acid {2-[4-(1-hydroxy-1-methyl-ethyl)-oxazol-2-ylmethyl]-2H-[1,2,3]triazol-4-yl}-amide]",0.0172 µM
10,"Cc1nc(C(=O)Nc2cnn(Cc3nc(C(C)(C)O)co3)n2)c(-c2ccccc2)o1 [Example 10, 2-Methyl-5-phenyl-oxazole-4-carboxylic acid {2-[4-(1-hydroxy-1-methyl-ethyl)-oxazol-2-ylmethyl]-2H-[1,2,3]triazol-4-yl}-amide]",0.0103 µM
11,"CC(C)(O)c1coc(Cn2ncc(NC(=O)c3ncsc3-c3cccc(F)c3)n2)n1 [Example 11, 5-(3-Fluoro-phenyl)-thiazole-4-carboxylic acid {2-[4-(1-hydroxy-1-methyl-ethyl)-oxazol-2-ylmethyl]-2H-[1,2,3]triazol-4-yl}-amide]",0.0823 µM
12,"Cc1nc(C(=O)Nc2cnn(Cc3nc(C(C)(C)O)co3)n2)c(-c2cccc(OC(F)(F)F)c2)o1 [Example 12, 2-Methyl-5-(3-trifluoromethoxy-phenyl)-oxazole-4-carboxylic acid {2-[4-(1-hydroxy-1-methyl-ethyl)-oxazol-2-ylmethyl]-2H-[1,2,3]triazol-4-yl}-amide]",0.0323 µM
13,"Cc1nc(C(=O)Nc2cnn(Cc3nc(C(C)(C)O)co3)n2)c(-c2cccc(F)c2)o1 [Example 13, 5-(3-Fluoro-phenyl)-2-methyl-oxazole-4-carboxylic acid {2-[4-(1-hydroxy-1-methyl-ethyl)-oxazol-2-ylmethyl]-2H-[1,2,3]triazol-4-yl}-amide]",0.0132 µM
14,"Cc1cccc(-c2ocnc2C(=O)Nc2cnn(Cc3nc(C(C)(C)O)co3)n2)c1 [Example 14, 5-m-Tolyl-oxazole-4-carboxylic acid {2-[4-(1-hydroxy-1-methyl-ethyl)-oxazol-2-ylmethyl]-2H-[1,2,3]triazol-4-yl}-amide]",0.0113 µM
15,"Cc1cccc(-c2oc(C3CC3)nc2C(=O)Nc2cnn(Cc3nc(C(C)(C)O)co3)n2)c1 [Example 15, 2-Cyclopropyl-5-m-tolyl-oxazole-4-carboxylic acid {2-[4-(1-hydroxy-1-methyl-ethyl)-oxazol-2-ylmethyl]-2H-[1,2,3]triazol-4-yl}-amide]",0.0529 µM
16,"Cc1cccc(-c2oc(C)nc2C(=O)Nc2cnn(Cc3nc(C(C)(C)O)cs3)n2)c1 [N-(2-((4-(2-Hydroxypropan-2-yl)thiazol-2-yl)methyl)-2H-1,2,3-triazol-4-yl)-2-methyl-5-(m-tolyl)oxazole-4-carboxamide, reference compound]",0.245 µM
